In publication PMC10135569, “Does Enhanced Structural Maturity of hiPSC-Cardiomyocytes Better for the Detection of Drug-Induced Cardiotoxicity?” (Biomolecules, 2023):

How the values were obtained:
[1] = tested on: hiPSC-CMs (iCell2 Cardiomyocytes) 2D monolayers; experiment: Membrane potential (action potential) recordings with FluoVolt voltage-sensitive dye on the CellOPTIQ platform; assay type: cell-based, human; conditions: for activity at 0.03 µM / activity at 0.1 µM / activity at 0.3 µM / activity at 1 µM: Homo sapiens, Cardiomyocyte, 0.5 h, 30 min, delta over DMSO 0.1%
Procedure: (§1) Cardiomyocytes (FUJIFILM Cellular Dynamics, Madison, WI, USA) were kept at −190 °C and prepared for culture as per the manufacturer’s instructions.
(§2) Standard fibronectin vs. Matrix Plus well coating: The cells were cultured using two different coatings in a humidified incubator at 37 °C with 5% CO2. First, 96-well glass-bottomed plates (MatTek, Ashland, MA) were coated with fibronectin ([…] in PBS supplemented with Ca^2+ and Mg^2+; Sigma, St. Louis, MO, USA) (defining FM). Second, CELLvo^TM Matrix Plus (StemBioSys, San Antonio, TX, USA), which were pre-coated on 96 well glass bottom plates and kept at 4 °C. On the day of plating, CELLvo^TM Matrix Plus plates were transferred to room temperature, rehydrated with phosphate buffer saline (PBS), incubated for 1 h at 37 °C, and washed 2× with PBS. Cells were introduced at a density of 50,000 cells/well to allow the formation of a confluent monolayer in each well (defined as MM). The maintenance protocols followed the manufacturer’s instructions and used the iCell^2 Cardiomyocytes Maintenance media for media changes every 2 days. Experiments were performed between days 5 and 6, as recommended by the manufacturers. Before beginning an experiment, cells were washed in serum-free media (SF media) (Fluorobrite DMEM, Gibco, Thermo Fisher Scientific, Horsham, UK).
(§3) The drug powders were dissolved in DMSO, and four stock concentrations at 1000× the final target concentration were prepared in DMSO. For the experiment, an intermediate concentration 2× the target solution was prepared in SF media. The addition of drugs to the cells was accomplished by replacing 50% of the well volume with the intermediate 2× solution. The same procedure was done for vehicle control using DMSO. The experimental number n = 8/concentration/testing compound in the FM or MM condition, and n = 36 for each positive or negative control in the FM or MM condition.
Cultures of hiPSC-CMs (5–6 days post-plating) were treated with FluoVolt dye (1:1000, Invitrogen, Cat# F10488) in SF media and incubated for 20 min at 37 °C with 5% CO2 and 80% humidity. Multi-well plates were placed in the environmentally controlled stage incubator (37 °C, 5% CO2, water-saturated air atmosphere) (Okolab Inc. Burlingame, CA) of the CellOPTIQ® platform (Clyde Biosciences Ltd., Glasgow, Scotland). The FluoVolt signal was recorded from a 0.2 mm × 0.2 mm area using a 40× (numerical aperture: NA 0.6) Excitation wavelength was 470 ± 10 nm using a light-emitting diode (LED), and emitted light was collected by two photomultipliers (PMTs) at 510–560 nm (channel 1) and 590–650 nm (channel 2), respectively. LED, PMT, and associated power supplies and amplifiers were supplied by Cairn Research Ltd. (Kent, UK) and digitized at 10 kHz and stored on a computer hard drive. In the case of FluoVolt-based action potential recordings, the short wavelength (channel 1, […]) was analyzed for action potential features.
(§4) The dye FluoVolt is loaded into the surface membrane (outer leaflet), and the dye remains within the membrane for many dots, allowing intermittent voltage measurements over the experimental period. In this study, measurements were restricted to within 30 mins of application of the drug. The measurements were made on the same area before/after drug/DMSO addition. […] Baseline spontaneous electrical activity and the associated contractility signal were recorded by capturing 10 s segments of fluorescent signal and video for 2D plates and 15 s for organoids from each well prior to compound addition. Drugs were tested at four concentrations in n = 8 independent replicates (i.e., 8 wells from a single plating) at each concentration. A vehicle control was included for each drug. A 10 s or 15 s recording was then taken 30 min after exposure to the drug or vehicle with only one concentration applied/well.

[2] = tested on: hiPSC-CMs (iCell2 Cardiomyocytes) 2D monolayers; experiment: Contractility measurements using video imaging (ContractilityTool / MUSCLEMOTION); assay type: cell-based, human; conditions: Homo sapiens, Cardiomyocyte, 0.5 h, 30 min, delta over DMSO 0.1%
Procedure: as §1, §2, §3
as §4, with “applied/well. Offline analysis was performed using proprietary software (CellOPTIQ®).” for “applied/well.”
Short periods (10 s or 15 s) of video were analyzed using the ContractilityTool application (developed by F.L. Burton), which is an implementation of the MUSCLEMOTION algorithm.

[3] = FM monolayer, read-out: APD30 (%DD)
[4] = FM monolayer, read-out: APD90 (%DD)
[5] = FM monolayer, read-out: CL (%DD)
[6] = FM monolayer, read-out: Trise (%DD)
[7] = MM monolayer, read-out: APD30 (%DD)
[8] = MM monolayer, read-out: APD90 (%DD)
[9] = MM monolayer, read-out: CL (%DD)
[10] = MM monolayer, read-out: Trise (%DD)
[11] = FM monolayer, read-out: CtAmp (%DD)
[12] = FM monolayer, read-out: CtD50 (%DD)
[13] = MM monolayer, read-out: CtAmp (%DD)
[14] = MM monolayer, read-out: CtD50 (%DD)

C[N+](C)(C)CCOC(N)=O [Carbachol]
activity at 0.03 µM [1, 3]: 97 ± 2.3%
activity at 0.03 µM [1, 4]: 99 ± 1.4%
activity at 0.03 µM [1, 5]: 99 ± 2.6%
activity at 0.03 µM [1, 6]: 104 ± 11.8%
activity at 0.1 µM [1, 3]: 104 ± 2.6%
activity at 0.1 µM [1, 4]: 100 ± 1.2%
activity at 0.1 µM [1, 5]: 105 ± 0.6%
activity at 0.1 µM [1, 6]: 125 ± 18.5%
activity at 0.3 µM [1, 3]: 102 ± 2.9%
activity at 0.3 µM [1, 4]: 103 ± 1%
activity at 0.3 µM [1, 5]: 109 ± 1%
activity at 0.3 µM [1, 6]: 118 ± 17.5%
activity at 1 µM [1, 3]: 103 ± 1.6%
activity at 1 µM [1, 4]: 110 ± 1.1%
activity at 1 µM [1, 5]: 114 ± 0.5%
activity at 1 µM [1, 6]: 95 ± 17.7%
activity at 0.03 µM [1, 7]: 105 ± 2.2%
activity at 0.03 µM [1, 8]: 103 ± 1.8%
activity at 0.03 µM [1, 9]: 106 ± 0.3%
activity at 0.03 µM [1, 10]: 186 ± 29%
activity at 0.1 µM [1, 7]: 106 ± 2.4%
activity at 0.1 µM [1, 8]: 107 ± 1.1%
activity at 0.1 µM [1, 9]: 115 ± 0.6%
activity at 0.1 µM [1, 10]: 144 ± 20.7%
activity at 0.3 µM [1, 7]: 111 ± 1.9%
activity at 0.3 µM [1, 8]: 111 ± 1.1%
activity at 0.3 µM [1, 9]: 122 ± 0.9%
activity at 0.3 µM [1, 10]: 143 ± 22.1%
activity at 1 µM [1, 7]: 120 ± 2.3%
activity at 1 µM [1, 8]: 118 ± 1%
activity at 1 µM [1, 9]: 131 ± 0.7%
activity at 1 µM [1, 10]: 143 ± 17.8%
effect on cycle length (in words) ([1]; both FM and MM monolayers, concentration not given): concentration-dependent increase
activity at 0.03 µM [2, 11]: 94 ± 15.9%
activity at 0.03 µM [2, 12]: 104 ± 2.1%
activity at 0.1 µM [2, 11]: 85 ± 10.4%
activity at 0.1 µM [2, 12]: 103 ± 2%
activity at 0.3 µM [2, 11]: 102 ± 21.3%
activity at 0.3 µM [2, 12]: 108 ± 2.1%
activity at 1 µM [2, 11]: 109 ± 13.8%
activity at 1 µM [2, 12]: 107 ± 3.7%
activity at 0.03 µM [2, 13]: 86 ± 6.4%
activity at 0.03 µM [2, 14]: 98 ± 1.5%
activity at 0.1 µM [2, 13]: 135 ± 12.9%
activity at 0.1 µM [2, 14]: 102 ± 1.8%
activity at 0.3 µM [2, 13]: 118 ± 12.9%
activity at 0.3 µM [2, 14]: 111 ± 2.1%
activity at 1 µM [2, 13]: 114 ± 18.4%
activity at 1 µM [2, 14]: 118 ± 1.5%
